Experiments:
Human LPA4 = biological target: T1, Human LPA4 (Homo sapiens, UniProt Q99677); assay: Calcium-mobilization assay (FURA-2), human LPA4 in CHO cells; assay type: cell-based
T1 construct: expressed in transfected cells; host or cells: CHO
Procedure: We investigated structure-activity relationships across species, LPAR subtypes and between Rx100 and two known process impurities encountered in manufacture: Rx103 (‘E’ isomer) and Rx200 (oleyl phosphate and impurity, which can be an Rx100 degradant along with oleyl alcohol). Rx100, Rx103, Rx200 and native LPA were investigated at different human LPAR subtypes. In addition, the activity of these compounds was evaluated at LPA2 receptors from the rhesus, rat and mouse species. Human LPA1/2/3 subtypes were transfected into mouse embryonic fibroblasts (MEF) or rat hepatoma cells (RH7777)—both of which are normally non-responsive or null to LPA. Human LPA4 was transfected into Chinese hamster ovary (CHO) cells and LPA5 into the B103 neuroblastoma cell line. […] The B103 rat neuroblastoma cell line is endogenously nonresponsive to LPA but expresses heterologous LPA5 receptors well. […] LPAR activation elicits a G-protein-mediated transient rise in intracellular calcium level that is proportional to the concentration of LPA applied. The intracellular calcium level was quantified by the calcium-selective fluorescent indicator FURA-2 (e.g., increased intracellular calcium surge=increased fluorescence).

[1] = Qualitative solubility of Rx100.L-Lysine salt in 13 additional solvents; assay type: physicochemical; details: for Observation (qualitative solubility): ~50 mg solid
Text: The solubility of Rx100.L-Lysine salt was further tested in 13 additional solvents.

[2] = 28-day repeat-dose subcutaneous toxicity and toxicokinetics in rats; assay type: in vivo, Sprague Dawley rats; details: Sprague Dawley, rat, plasma, subcutaneous; day 27; lowest dose of 1.81 mg/kg/day
Text: (§1) The remaining 5 rats per group in the control and high dose groups were then allowed a 14-day recovery period following treatment. Parameters evaluated included mortality (twice daily) clinical signs, food consumption (weekly), body weights (weekly), ophthalmoscopy (pre-dosing and prior to necropsy), hematology and clinical chemistry (Week 4), gross pathology, organ weights, and histopathology for all tissues in all dose groups. […] Ophthalmological examinations were unremarkable. […] Secondary changes included increased spleen weights and changes in other male reproductive organs. An increase in adrenal weights may have been related to a stress response. Macroscopic changes at necropsy included small testes (middle and high dose) and lesions apparent at the injection sites in some animals at all dose levels.
(§2) At recovery, only effects in male reproductive organs were evident at the highest dose, with skin lesions still evident in some animals at the highest dose. […] Cmax and AUC were generally higher at the end of the study compared to day 1. No gender differences were apparent.

Sprague Dawley rats = assay: as above; assay type: in vivo
Text: as §1, §2

[3] = test system: bone marrow cells (micronucleated PCEs); assay: In vivo rat bone marrow micronucleus assay; set-up: species or system Sprague-Dawley rats; details: 500 mg/kg single subcutaneous dose

T1 sequence (Q99677 whole entry): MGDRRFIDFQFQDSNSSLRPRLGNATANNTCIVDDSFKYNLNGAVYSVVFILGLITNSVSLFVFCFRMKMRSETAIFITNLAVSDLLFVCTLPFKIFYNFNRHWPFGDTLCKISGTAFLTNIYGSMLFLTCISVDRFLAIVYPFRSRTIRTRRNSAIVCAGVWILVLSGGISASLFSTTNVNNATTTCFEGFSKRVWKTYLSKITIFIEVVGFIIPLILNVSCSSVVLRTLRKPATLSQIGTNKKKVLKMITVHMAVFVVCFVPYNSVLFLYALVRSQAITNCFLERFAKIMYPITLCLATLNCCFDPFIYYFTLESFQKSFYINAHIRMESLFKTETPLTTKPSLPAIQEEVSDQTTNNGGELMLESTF

CCCCCCCC/C=C\CCCCCCCCOP(O)(O)=S [Rx100, (Z)—O-octadec-9-en-1-yl O,O-dihydrogen phosphorothioate]
EC50 (Human LPA4): > 5 µM
Emax (Human LPA4; CHO, read-out: Emax (% of LPA)): 97%

CCCCCCCC/C=C\CCCCCCCCOP(O)(O)=S [Rx100.L-Lysine, (Z)—O-octadec-9-en-1-yl O,O-dihydrogen phosphorothioate]
Observation (qualitative solubility) ([1]; Acetone:water (1:1), 0.5 mL added): dissolved
Observation (qualitative solubility) ([1]; Acetone, 0.75 mL added): slurry
Observation (qualitative solubility) ([1]; EtOH:water (1:1), 0.75 mL added): dissolved
Observation (qualitative solubility) ([1]; EtOH:water (8:2), 0.75 mL added): cloudy
Observation (qualitative solubility) ([1]; EtOH, 0.75 mL added): slurry
Qualitative solubility ([1]; IPA-water (1:1)): soluble
Observation (qualitative solubility) ([1]; IPA:water (1:1), 0.75 mL added): dissolved
Observation (qualitative solubility) ([1]; IPA:water (8:2), 0.75 mL added): oil
Observation (qualitative solubility) ([1]; IPA, 0.75 mL added): slurry
Observation (qualitative solubility) ([1]; MeOH:water (1:1), 0.5 mL added): dissolved
Observation (qualitative solubility) ([1]; MeOH:water (8:2), 0.75 mL added): dissolved
Observation (qualitative solubility) ([1]; MeOH, 0.75 mL added): slurry
Observation (qualitative solubility) ([1]; THF:water (1:1), 0.5 mL added): oil
Observation (qualitative solubility) ([1]; THF, 0.75 mL added): slurry
Qualitative solubility ([1]; acetone:water (1:1)): soluble
Qualitative solubility ([1]; ethanol:water (1:1)): soluble
Qualitative solubility ([1]; methanol:water (1:1)): soluble
Qualitative solubility ([1]; methanol:water (8:2)): soluble
AUC at 27 day [2]: 5040 ng·h/mL
mortality (Sprague Dawley rats; 28 days SC, 1.81, 6.33 and 18.1 (later 12.7) mg/kg/day): All animals survived the treatment period except for one high dose female
injection site lesions (Sprague Dawley rats; 28 days SC, dose relationship to incidence and severity): discoloration, scabbing, and swelling was observed in all treatment groups
clinical chemistry changes (Sprague Dawley rats; at >6.33 mg/kg): mildly lower albumin concentration and A/G ratio, higher globulin concentration and moderately higher triglycerides
liver weights (Sprague Dawley rats; both genders): dose related increased liver weights in the middle and high dose groups
body weight gains (Sprague Dawley rats; high dose): reduced
NOAEL (Sprague Dawley rats; males): could not be clearly established
testicular weights (Sprague Dawley rats; males): dose related decreased testicular weights in all groups of males
hematology, red cell changes (Sprague Dawley rats; middle and high dose levels): lower red cell parameters and higher reticulocyte counts
coagulation studies (Sprague Dawley rats; rat, in vivo): lower APPT in the females at the high dose and higher fibrinogen levels at all doses
hematology, white cell parameters and platelets (Sprague Dawley rats; rat, in vivo): increased leukocyte, neutrophil, eosinophil and basophil counts and increased platelets
histopathology, injection sites (Sprague Dawley rats; rat, in vivo): chronic mixed cell inflammation at all doses
histopathology, liver (Sprague Dawley rats; rat, in vivo): dose related increased hepatocyte vacuolation at all doses
histopathology, testes (Sprague Dawley rats; rat, in vivo): degeneration and necrosis of the seminiferous tubules in all animals at the middle and high dose and in one animal at the low dose
ophthalmological examinations (Sprague Dawley rats; rat, in vivo): unremarkable
toxicokinetics, plasma concentrations (Sprague Dawley rats; rat, in vivo): dose related increases in plasma concentrations
liver enzymes (Sprague Dawley rats; some animals at 18.1/12.7 mg/kg): elevated liver enzymes
Mean % MNPC (±SD) Male ([3]; harvest 24 hour): 0.09%
Mean Ratio PCE:NCE (±SD) Male ([3]; harvest 24 hour): 0.52
Mean % MNPC (±SD) Male ([3]; harvest 48 hour): 0.08%
